Results as given in patent publication US20030181520A1, “Methods of reversing and preventing cardiovascular pathologies” (priority 2001, published 2003).

What was measured:
QTc interval = experiment: Clinical trial: QTc interval; type: in vivo, human
[1] = Antioxidant activity (preclinical comparison)
MCP-1 = MCP-1 gene expression inhibition; type: cell-based; conditions: compound A at low micromolar concentrations, probucol at very high concentrations
[2] = tested on: reference vessels (coronary arteries that were not targets of angioplasty); experiment: Clinical trial: IVUS analysis of lumen volume of reference vessels (non-PCI site); type: in vivo, human; conditions: for lumen volume change of reference vessels: IVUS, non-PCI site
Protocol: (§1) The primary endpoint of the trial was the size of the lumenal area (coronary artery opening), as measured by intravascular ultrasound (IVUS), six months after angioplasty. […] Angiographic restenosis was also assessed using a standard definition of restenosis as measured by quantitative coronary angiography (QCA). […] An IVUS analysis of reference vessels (blood vessels of coronary arteries that were not targets of angioplasty procedures) was also carried out. The data indicated lumen volumes increased for patients who received either of the top two doses of Compound A. In contrast, patients on placebo had decreased lumen volumes, consistent with the expected progression of atherosclerosis.
(§2) IVUS examinations were conducted at 30 Mhz using 3.5 French CVIS catheters. All IVUS examinations were preceded by IC Ntg 0.3 mg. Results of these examinations are found in FIGS. 1-6.

VCAM-1 = VCAM-1 gene expression inhibition; type: cell-based; conditions: compound A at low micromolar concentrations, probucol at very high concentrations
[3] = Anti-inflammatory activity (preclinical comparison)
stented arteries = experiment: Clinical trial: angiographic restenosis by quantitative coronary angiography (QCA); type: in vivo, human; conditions: for rate of angiographic restenosis in stented arteries: QCA; for restenosis rate reduction: relative to placebo (37.5 percent); for restenosis after PCI: treatment 2 weeks before and 4 weeks after PCI
Protocol: as §1
(§3) Treatment of the above was given 2 weeks prior to and 4 weeks after PCI. PCI was performed on greater than or equal to 1 native artery with greater than or equal to 1 de novo lesion of greater than or equal to 50%. All PCI procedures (with or without stent placement) and post-PCI management were performed according to recognized current clinical practice. 0.3 mg of nitroglycerin(Ntg) intracoronary (IC) were administered at every angiogram. Quantitative Coronary Angiography (QCA) measurements were taken prior to-PCI, 10 minutes post-PCI, and final follow-up (approximately 6 months).

[4] = tested on: coronary artery opening at the site of angioplasty; experiment: Clinical trial: minimal luminal area by intravascular ultrasound (IVUS) six months after angioplasty; type: in vivo, human; conditions: for mean minimal luminal area: IVUS six months after angioplasty
Protocol: as §1
A study was conducted to determine whether Compound A reduces restenosis as assessed by intravascular ultrasound (IVUS) when administered for 2 weeks before and 4 weeks after percutaneous coronary intervention (PCI) with or without stent placement. A multi-center, double-blind placebo-controlled randomized trail with 5 treatment groups:
as §3, §2

| SMILES | prolongation of the QTc interval (QTc interval) | antioxidant properties [1] | inhibition of MCP-1 gene expression (MCP-1) | lumen volume change of reference vessels ([2]; 70 mg once a day) | lumen volume change of reference vessels ([2]; 140 mg once a day) | lumen volume change of reference vessels ([2]; 280 mg once a day) | lumen dimensions of the reference segments ([2]; in contrast to probucol) | inhibition of VCAM-1 gene expression (VCAM-1) | activity as an anti-inflammatory agent [3] | rate of angiographic restenosis in stented arteries (stented arteries; combined Compound A arms (70, 140, 280 mg once a day)) | restenosis rate reduction (stented arteries; combined Compound A arms) | restenosis after PCI (stented arteries) | mean minimal luminal area ([4]; 70 mg once a day for six weeks) | mean minimal luminal area ([4]; 140 mg once a day for six weeks) | mean minimal luminal area ([4]; 280 mg once a day for six weeks, p<0.05 vs. placebo) | luminal area at the site of angioplasty ([4]; at two weeks, p<0.05) | lumen volume change of reference vessels ([2]; probucol 500 mg twice a day) | restenosis rate reduction (stented arteries; probucol 500 mg twice a day) | rate of angiographic restenosis in stented arteries (stented arteries; probucol 500 mg twice a day) | mean minimal luminal area ([4]; probucol 500 mg twice a day for six weeks) |
| --- | --- | --- | --- | --- | --- | --- | --- | --- | --- | --- | --- | --- | --- | --- | --- | --- | --- | --- | --- | --- |
| CC(C)(Sc1cc(C(C)(C)C)c(O)c(C(C)(C)C)c1)Sc1cc(C(C)(C)C)c(OC(=O)CCC(=O)O)c(C(C)(C)C)c1 [Compound A, Butanedioic acid, mono [4-[[1-[[3,5-bis(1,1-dimethylethyl)-4-hydroxyphenyl]thio]-1-methylethyl]thio]2,6-bis(1,1-dimethylethyl)phenyl]ester] | without causing prolongation | equipotent to probucol | very active inhibitor | −2.4 mm3 | +3.5 mm3 | +1.8 mm3 | surprising improvement | very active inhibitor | consistently very effective | 26.0% | 31% | reduce restenosis | 2.75 mm2 | 3.17 mm2 | 3.36 mm2 | dose response improvement |  |  |  |  |
| CC(C)(Sc1cc(C(C)(C)C)c(O)c(C(C)(C)C)c1)Sc1cc(C(C)(C)C)c(O)c(C(C)(C)C)c1 [Probucol, probucol, reference compound] |  |  | inactive |  |  |  |  | inactive |  |  |  | reduce restenosis |  |  |  |  | −0.2 mm3 | 32% | 25.5% | 3.69 mm2 |
